Measured values reported in US20240050580A1, “COMPOSITIONS TARGETING TUMOR ASSOCIATED MACROPHAGES AND METHODS USING SAME” (Rutgers, The State University of New Jersey, priority 2020, published 2024).
Bridge positions count the residues as written; N and C are the ends. Ends that are not written are not given here.

What was measured:
EF43.fgf4 cells = assay: Phage/peptide binding to cultured EF43.fgf4 cells (BRASIL cell binding assay); assay type: cell-based, mouse; conditions: standard cell binding assay, phage-displayed peptide
Protocol: (§1) The Biopanning and Rapid Analysis of Selective Interactive Ligands (BRASIL) methodology was used to test binding of phage to cultured cells. For phage binding to the candidate receptors PDIA3 and DBP, individual microtiter wells of 96-well plates were coated overnight (ON) with 1 μg/ml of recombinant proteins, followed by blocking with BSA and incubation with 10^9 TU of insertless phage or […]-phage for 1 hour at room temperature (RT). GST and BSA were used as control proteins. Bound phage were recovered by log-phase infection of host bacteria (200 μl E. coli K91Kan).

DBP = biological target: T1, DBP (Homo sapiens, UniProt P02774); assay: Competitive binding of […]-phage and vitamin D forms to DBP; conditions: wells pre-incubated with 3 nM or 30 nM competitor; P<0.05
T1 construct: GST; purchased Abcam
T1 sequence (P02774 17-474): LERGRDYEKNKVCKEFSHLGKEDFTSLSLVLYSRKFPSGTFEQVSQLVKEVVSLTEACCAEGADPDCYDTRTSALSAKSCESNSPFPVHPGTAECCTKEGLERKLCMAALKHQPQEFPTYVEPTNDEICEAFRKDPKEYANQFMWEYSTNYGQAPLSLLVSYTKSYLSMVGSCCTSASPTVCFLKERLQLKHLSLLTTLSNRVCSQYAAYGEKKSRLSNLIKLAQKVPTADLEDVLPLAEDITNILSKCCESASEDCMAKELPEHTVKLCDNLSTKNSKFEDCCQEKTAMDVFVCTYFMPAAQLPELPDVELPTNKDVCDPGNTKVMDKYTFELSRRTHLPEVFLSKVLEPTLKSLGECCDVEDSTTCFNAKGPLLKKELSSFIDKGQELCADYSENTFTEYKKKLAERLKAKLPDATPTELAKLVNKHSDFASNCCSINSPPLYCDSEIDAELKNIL
Protocol: as §1

[1] = test system: CD11b+F4/80+ TAM from EF43.fgf4 mammary tumors; assay: Cytokine gene expression by quantitative real-time PCR in cultured TAM; assay type: cell-based, mouse
Protocol: Three sets of total RNA (RNeasy Mini Kit, Qiagen) were independently isolated from cultured macrophages, or fresh macrophages isolated directly from tumors. DNA synthesis was performed with the […] Reverse Transcription System (Promega) by using oligodT for reverse transcription. Gene expression was analyzed with the use of Tagman probes (Applied Biosystems) in a 7500 Fast Real-Time PCR System instrument (Applied Biosystems) and three sets of endogenous control genes: 18S and GAPDH and GUSB1. TAM were obtained directly from EF43.fgf4 tumors. Tissue digestion was performed in collagenase A in serum-free DMEM (1 mg/mL) for 20 minutes at 37° C., followed by filtering through 70 μm nylon cell strainers and centrifugation. Macrophages were enriched by magnetic bead separation of CD11b-positive cells (Miltenyi Biotec) and either used for RNA extraction or cultured in 6-well plates containing DMEM (Gibco) supplemented with 20% FBS (Sigma) and 50 ng/ml of M-CSF (R&D Systems). A homogeneous population of adherent macrophages (namely, >99% CD11b+F480+) was obtained after 7 days in culture.

[2] = test system: EF43.fgf4-derived mammary fat pad tumors; assay: In vivo phage display library selection in EF43.fgf4 tumor-bearing mice; set-up: species or system mouse; conditions: peptide sequences from third round of in vivo selection
Protocol: Combinatorial phage display selections in vivo in tumor-bearing mice were performed as described in the literature. In brief, animals received 10^9 TU iv of an unselected phage display random peptide library (displaying the insert CX7C). Tumors and control organs were collected after 24 hours of systemic circulation. For homing of individual phage clones in vivo, tumor-bearing mice were deeply anesthetized with 1-2% isoflurane and received 10^9 TU of targeted phage or insertless control phage, both administered iv side-by-side. Phage particles were recovered from tissue samples by bacterial infection and processed as described in the literature.
A phage display-based approach was used to identify homing peptides that target TAM in TNBC. […] A random phage peptide library was first administered intravenously (iv) in immunocompetent female BALB/c mice with established EF43.fgf4-derived mammary fat pad tumors. Phage particles were recovered from tumors after 24 hours, re-amplified, and subjected to two additional rounds of in vivo selection. […] The four selected peptides were next individually evaluated based on absence of binding to EF43.fgf4 cells in vitro (FIG. 2B). […] In a non-limiting aspect, the peptides […], (SEQ ID NO:3) […] (SEQ ID NO:4), and […] (SEQ ID NO:2) were not studied further.

EF43.fgf4 tumors = assay: Systemic treatment of EF43.fgf4 tumor-bearing mice with soluble peptide; assay type: in vivo, mouse
[3] = biological target: T2, recombinant human vitamin D-binding protein (DBP) (human, UniProt P02774 17-474, limits assumed); assay: phage binding assay on coated recombinant protein, bound phage counted as TU
T2 construct: Bought from Abcam and coated at 1 ug/ml on microtiter wells; also called recombinant human DBP; DBP-GST
T2 sequence (looked up): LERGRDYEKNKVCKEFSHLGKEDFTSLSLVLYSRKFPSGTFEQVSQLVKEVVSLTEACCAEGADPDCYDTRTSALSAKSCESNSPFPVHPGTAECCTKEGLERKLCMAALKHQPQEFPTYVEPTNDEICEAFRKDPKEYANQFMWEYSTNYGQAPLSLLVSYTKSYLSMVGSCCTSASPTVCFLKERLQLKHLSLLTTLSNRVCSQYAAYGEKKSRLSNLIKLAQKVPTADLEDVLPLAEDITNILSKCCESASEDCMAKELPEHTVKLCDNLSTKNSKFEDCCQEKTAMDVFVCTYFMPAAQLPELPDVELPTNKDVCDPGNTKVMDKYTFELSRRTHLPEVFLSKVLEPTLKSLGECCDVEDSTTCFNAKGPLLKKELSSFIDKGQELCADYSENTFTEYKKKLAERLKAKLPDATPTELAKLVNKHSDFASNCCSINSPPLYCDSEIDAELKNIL
Protocol: The Biopanning and Rapid Analysis of Selective Interactive Ligands (BRASIL) methodology was used to test binding of phage to cultured cells. […] GST and BSA were used as control proteins. Bound phage were recovered by log-phase infection of host bacteria (200 μl E. coli K91Kan).

[4] = biological target: T3, PDIA3 on the surface of tumor associated macrophages (TAM) from EF43.fgf4 mammary tumors (mouse, UniProt P27773 25-505); assay: cell-based or functional assay
T3 sequence (looked up): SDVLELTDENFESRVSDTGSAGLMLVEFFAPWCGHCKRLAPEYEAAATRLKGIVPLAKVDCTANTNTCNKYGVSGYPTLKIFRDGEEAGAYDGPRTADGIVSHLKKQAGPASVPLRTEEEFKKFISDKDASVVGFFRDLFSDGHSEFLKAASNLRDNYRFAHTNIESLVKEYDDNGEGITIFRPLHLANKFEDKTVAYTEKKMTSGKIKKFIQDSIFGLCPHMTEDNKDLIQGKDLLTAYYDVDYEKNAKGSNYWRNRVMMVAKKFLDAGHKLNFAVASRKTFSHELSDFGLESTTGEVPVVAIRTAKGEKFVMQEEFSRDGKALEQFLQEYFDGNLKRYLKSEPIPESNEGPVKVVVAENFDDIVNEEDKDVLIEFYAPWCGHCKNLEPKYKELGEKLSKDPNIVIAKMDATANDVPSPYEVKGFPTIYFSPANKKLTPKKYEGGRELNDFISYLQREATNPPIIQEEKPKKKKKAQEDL

## CRGFVVGRC (TAM Targeting Peptide) [TAM targeting peptide selected by in vivo phage display]
EF43.fgf4 cells
  binding to EF43.fgf4 cells in vitro: bound to EF43.fgf4 cells

## C=C1CC[C@H](O)C/C1=C/C=C1\CCC[C@]2(C)[C@@H]([C@H](C)CCCC(C)C)CC[C@@H]12 [vitamin D3, cholecalciferol]
DBP
  effect on binding of CSSTRESAC-phage to immobilized DBP: not

## CSSTRESAC (disulfide 1-9) [TAM targeting peptide from CX7C phage library; modeled with disulfide bridge between Cys1 and Cys9]
EF43.fgf4 cells
  binding to EF43.fgf4 cells in vitro: did not
[1]
  gene expression of IL-4 and IL-13: undetectable
[1]; relative to control cells
  gene expression of IL-18, IL-12, and INFβ: modest increases or were detected only at background levels
  gene expression of anti-inflammatory cytokines TGF-β1, TGF-β2, IL-10, and arginase-1: much lower increases
[2]
  enrichment relative to each of the other three selected peptides: 16 fold
EF43.fgf4 tumors; iv, vs unrelated control peptide or vehicle, from one week post initiation, P<0.001
  tumor growth: significant delay in tumor growth
EF43.fgf4 tumors; vs control peptide
  macrophage population in tumor sections (immunohistochemistry, CD163): reduction of the macrophage population
EF43.fgf4 tumors; vs negative control groups
  number of CD11b+IL10highIL12low PDIA3-expressing TAM in tumors (FACS): reduction in the number

## CQRALMIAC (TAM Targeting Peptide) [TAM targeting peptide selected by in vivo phage display]
EF43.fgf4 cells
  binding to EF43.fgf4 cells in vitro: bound to EF43.fgf4 cells

## CRYSAARSC (TAM Targeting Peptide) [TAM targeting peptide selected by in vivo phage display]
EF43.fgf4 cells
  binding to EF43.fgf4 cells in vitro: bound to EF43.fgf4 cells

## C=C1/C(=C\C=C2/CCC[C@]3(C)[C@@H]([C@H](C)CCCC(C)(C)O)CC[C@@H]23)C[C@@H](O)C[C@@H]1O [1,25-(OH)2D3, reference compound]
[1]; TAM co-treated with CSSTRESAC peptide and 1,25-(OH)2D3
  effect of co-treatment on the CSSTRESAC-induced cytokine response: abrogated

B1: CSSTRESAC-phage (peptide)
peptide: CSSTRESAC
modifications: cysteine pairing not given here; also: displayed on bacteriophage particle
notes: The control was insertless phage; not shown: The phage coat protein and the rest of the phage particle that carry the CX7C insert
[3]
  binding result: binds

B2: synthetic CSSTRESAC peptide (SEQ ID NO:1) (peptide)
peptide: CSSTRESAC
modifications: not fully specified; cysteine pairing not given here
[4]
  gene expression of iNOS2 in cultured CD11b+F4/80+ TAM (real-time quantitative PCR): ~20 fold
  gene expression of the cytokine IL-23 in cultured CD11b+F4/80+ TAM (real-time quantitative PCR): ~10 fold
  gene expression of the pro-inflammatory cytokines IL-1β, TNF-α, and IL-6 in cultured CD11b+F4/80+ TAM (real-time quantitative PCR): ~40 fold
